Data reported in patent publication US9415134B2, “Fosfomycin preparation, a method for producing the preparation, and a polymethylmethacrylate bone cement powder containing the preparation” (HERAEUS MEDICAL GMBH, priority 2014, dated 2016).

Experiments:
[1] = tested on: vancomycin-resistant enterococci; settings: cited from earlier work
ESBL = settings: cited from earlier work
[2] = tested on: vancomycin-resistant Staphylococcus aureus (VRS); settings: cited from earlier work
[3] = biological target: MurA (UDP-N-acetylglucosamine-enolpyruvyl-transferase) (Escherichia coli, UniProt P0A749); settings: cited from earlier work
MurA (UDP-N-acetylglucosamine-enolpyruvyl-transferase), sequence (P0A749 whole entry): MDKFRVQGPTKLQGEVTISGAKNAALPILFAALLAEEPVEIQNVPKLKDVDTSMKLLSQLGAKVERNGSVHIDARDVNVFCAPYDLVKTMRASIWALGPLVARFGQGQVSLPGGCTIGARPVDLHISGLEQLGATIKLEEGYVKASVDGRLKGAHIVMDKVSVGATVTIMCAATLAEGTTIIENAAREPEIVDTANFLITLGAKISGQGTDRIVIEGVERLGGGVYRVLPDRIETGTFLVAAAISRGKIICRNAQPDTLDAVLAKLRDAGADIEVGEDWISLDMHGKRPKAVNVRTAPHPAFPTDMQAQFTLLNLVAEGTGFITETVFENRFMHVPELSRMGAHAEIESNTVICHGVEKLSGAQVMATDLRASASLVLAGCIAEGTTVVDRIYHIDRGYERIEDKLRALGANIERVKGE

[4] = tested on: gram-negative and gram-positive bacteria including methicillin-resistant staphylococci; settings: cited from earlier work
[5] = Hygroscopic properties of fosfomycin salts; assay type: physicochemical; settings: salt alone, atmospheric humidity
From the text: Both salts attract atmospheric humidity and deliquesce in the process. Experiments have shown that these salts, in the dry state, can be integrated into cement powders of polymethylmethacrylate bone cements. However, said cement powders also attract atmospheric humidity during storage on air, upon which the antibiotic particles deliquesce. This can cause the cement powder to clump. For this reason, both of these fosfomycin salts are unsuitable or poorly suitable for industrial production of antibiotic polymethylmethacrylate bone cement powders.

In the case of `C[C@@H]1O[C@@H]1P(=O)(O)O` [Fosfomycin, (2R,3S)-3-methyloxiranphosphonic acid], the Antibacterial efficacy [1] is listed as “efficacious”, the Antibacterial efficacy (ESBL) is listed as “efficacious” and the Antibacterial efficacy [2] is listed as “efficacious”. The “Inhibition of MurA” value [3] was “inhibits”, the Antibacterial activity ([4]; gram-negative and gram-positive bacteria including methicillin-resistant staphylococci) was “active” and the “Mode of antibacterial action” value ([4]; in susceptible bacteria) was “bactericidal”.
In the case of `C[C@@H]1O[C@@H]1P(=O)([O-])[O-].O.[Ca+2]` [calcium salt of fosfomycin, monohydrate of the calcium salt of fosfomycin], the Hygroscopic properties [5] is reported as “extraordinarily hygroscopic”.
For `C[C@@H]1O[C@@H]1P(=O)([O-])[O-].[Na+].[Na+]` [sodium salt, disodium salt of fosfomycin], the Hygroscopic properties [5] was “extraordinarily hygroscopic”.
With `C[C@@H]1O[C@@H]1P(=O)(O)O.NC(CO)(CO)CO` [trometamol-fosfomycin] the Hygroscopic properties [5] was “somewhat hygroscopic”.
